Assay [1] deals with purified recombinant human GAC (GLS1) (Homo sapiens (Human), UniProt O94925). Briefly: GLS1 Enzymatic Activity Assay (dual-coupled enzymatic assay, resorufin/Amplex UltraRed readout).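 Further: glutamate from GAC coupled via glutamate oxidase and peroxidase to resorufin, read as fluorescence (ex 530, em 590 nm) kinetically or at 20 min, four-parameter logistic IC50 fit.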 Format: biochemical.
The subject of assay [2] is A549 cells. Briefly: Proliferation Assay (A549 viability, Cell Titer Fluor, 72 hours). The assay is classed as cell-based. The note with it: Homo sapiens. In short, it runs like this:
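A549 cells seeded at 1000 cells/well, rested 24 h, then exposed to compound in 0.5% DMSO for 72 h at 37 °C. Viability read by Cell Titer Fluor fluorescence; IC50 from four-parameter logistic fit.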

Structures are written as SMILES.

This note sets out measurements from patent US10344025B2, “GLS1 inhibitors for treating disease” (Board of Regents, The University of Texas System, priority 2014, dated 2019).

Chain of purified recombinant human GAC (GLS1) (O94925 other isoform, or with tags, fused parts or gaps): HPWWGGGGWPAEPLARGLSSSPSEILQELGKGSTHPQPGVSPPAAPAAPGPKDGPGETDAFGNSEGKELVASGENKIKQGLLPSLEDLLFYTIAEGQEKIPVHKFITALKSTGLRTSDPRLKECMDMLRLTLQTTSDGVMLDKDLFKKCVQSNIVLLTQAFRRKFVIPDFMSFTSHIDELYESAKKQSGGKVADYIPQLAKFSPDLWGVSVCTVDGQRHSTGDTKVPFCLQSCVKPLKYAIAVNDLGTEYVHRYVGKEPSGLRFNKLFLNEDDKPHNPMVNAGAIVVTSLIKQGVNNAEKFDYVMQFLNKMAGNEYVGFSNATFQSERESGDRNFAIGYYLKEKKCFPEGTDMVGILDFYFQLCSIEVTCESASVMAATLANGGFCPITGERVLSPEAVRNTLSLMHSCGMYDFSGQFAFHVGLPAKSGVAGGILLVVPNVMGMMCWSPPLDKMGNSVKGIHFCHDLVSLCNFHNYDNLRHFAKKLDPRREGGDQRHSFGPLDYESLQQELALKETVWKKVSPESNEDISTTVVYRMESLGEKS

Broadly, the IC50 is the concentration that inhibits the measured activity by half. One may read the EC50 as the concentration giving half of the maximal effect. Read a low EC50 as a more potent agent. `O=C(Cc1cccc(OC(F)(F)F)c1)Nc1cn(CC(F)CCn2cc(C(=O)NCc3ccccn3)nn2)nn1` (stereo not shown) [Example 327, 1-[3-fluoro-4-(4-{2-[3-(trifluoromethoxy)phenyl]acetamido}-1H-1,2,3-triazol-1-yl)butyl]-N-(pyridin-2-ylmethyl)-1H-1,2,3-triazole-4-carboxamide]: in assay [1], the 50% inhibitory concentration (IC50) was less than 100 nM. The compound further showed an EC50 in assay [2] (A549, 72 h) of less than 100 nM.
On to `Cc1ccc(CNC(=O)c2cn(CCC(F)Cn3cc(NC(=O)Cc4cccc(OC(F)(F)F)c4)nn3)nn2)cn1` (stereo not shown) [Example 328, 1-[3-fluoro-4-(4-{2-[3-(trifluoromethoxy)phenyl]acetamido}-1H-1,2,3-triazol-1-yl)butyl]-N-[(6-methylpyridin-3-yl)methyl]-1H-1,2,3-triazole-4-carboxamide], for which the concentration for half-maximal inhibition (IC50) in assay [1] was less than 100 nM. The compound further had a concentration for a half-maximal effect (EC50) in assay [2] (A549, 72 h) of less than 100 nM.
On to `O=C(CN1CC(F)C1)Nc1cn(CCCCn2cc(C(=O)NCc3cccc(OC(F)(F)F)c3)nn2)nn1` [Example 329, 1-(4-{4-[2-(3-fluoroazetidin-1-yl)acetamido]-1H-1,2,3-triazol-1-yl}butyl)-N-{[3-(trifluoromethoxy)phenyl]methyl}-1H-1,2,3-triazole-4-carboxamide], for which the half-maximal inhibitory concentration (IC50) in assay [1] fell in the range of 100 to 500 nM. The compound also showed a concentration giving a half-maximal response (EC50) in assay [2] (A549, 72 h) of 500 to 5000 nM.
For `O=C(CN1CC(F)(F)C1)Nc1cn(CCCCn2cc(C(=O)NCc3cccc(OC(F)(F)F)c3)nn2)nn1` [Example 330, 1-(4-{4-[2-(3,3-difluoroazetidin-1-yl)acetamido]-1H-1,2,3-triazol-1-yl}butyl)-N-{[3-(trifluoromethoxy)phenyl]methyl}-1H-1,2,3-triazole-4-carboxamide], in that order: less than 100 nM and 100 to 500 nM.
The corresponding values for `O=C(CN1CCC(F)(F)C1)Nc1cn(CCCCn2cc(C(=O)NCc3cccc(OC(F)(F)F)c3)nn2)nn1` [Example 331, 1-(4-{4-[2-(3,3-difluoropyrrolidin-1-yl)acetamido]-1H-1,2,3-triazol-1-yl}butyl)-N-{[3-(trifluoromethoxy)phenyl]methyl}-1H-1,2,3-triazole-4-carboxamide] are less than 100 nM and 100 to 500 nM.
For `O=C(CN1CCC(F)(F)CC1)Nc1cn(CCCCn2cc(C(=O)NCc3cccc(OC(F)(F)F)c3)nn2)nn1` [Example 332, 1-(4-(4-(2-(4,4-difluoropiperidin-1-yl)acetamido)-1H-1,2,3-triazol-1-yl)butyl)-N-(3-(trifluoromethoxy)benzyl)-1H-1,2,3-triazole-4-carboxamide], the IC50 in assay [1] is less than 100 nM. In assay [2], this compound came in with an EC50 of 100 to 500 nM.
For `O=C(Cc1cccc(OC(F)(F)F)c1)Nc1cn(CCCCn2cc(C(=O)NCc3cc(Cl)ccc3F)nn2)nn1` [Example 334, N-[(5-chloro-2-fluorophenyl)methyl]-1-[4-(4-{2-[3-(trifluoromethoxy)phenyl]acetamido}-1H-1,2,3-triazol-1-yl)butyl]-1H-1,2,3-triazole-4-carboxamide], the IC50 in assay [1] is less than 100 nM. In assay [2] (A549, 72 h), this compound came in with a concentration for a half-maximal effect (EC50) of less than 100 nM.
For `Cc1ccc(CC(=O)Nc2cn(CCCCn3cc(C(=O)NCc4cc(OC(F)(F)F)ccc4F)nn3)nn2)cn1` [Example 335, N-{[2-fluoro-5-(trifluoromethoxy)phenyl]methyl}-1-(4-{4-[2-(6-methylpyridin-3-yl)acetamido]-1H-1,2,3-triazol-1-yl}butyl)-1H-1,2,3-triazole-4-carboxamide], the half-inhibitory concentration (IC50) in assay [1] is less than 100 nM. Besides, the half-maximal effective concentration (EC50) in assay [2] (A549, 72 h) is less than 100 nM.
As to `Cc1ccc(CC(=O)Nc2cn(CCCCn3cc(C(=O)NCc4cc(Cl)ccc4F)nn3)nn2)cn1` [Example 336, N-[(5-chloro-2-fluorophenyl)methyl]-1-(4-{4-[2-(6-methylpyridin-3-yl)acetamido]-1H-1,2,3-triazol-1-yl}butyl)-1H-1,2,3-triazole-4-carboxamide], the concentration for half-maximal inhibition (IC50) in assay [1] is less than 100 nM. The compound also gave an EC50 in assay [2] (A549, 72 h) of 100 to 500 nM.
As to `O=C(Cc1ccccn1)Nc1cn(CCCCn2cc(C(=O)NCc3cc(OC(F)(F)F)ccc3F)nn2)nn1` [Example 337, N-{[2-fluoro-5-(trifluoromethoxy)phenyl]methyl}-1-(4-{4-[2-(pyridin-2-yl)acetamido]-1H-1,2,3-triazol-1-yl}butyl)-1H-1,2,3-triazole-4-carboxamide], the half-inhibitory concentration (IC50) in assay [1] was less than 100 nM. In assay [2] (A549, 72 h), this compound had an EC50 of less than 100 nM.
`O=C(Cc1ccccn1)Nc1cn(CCCCn2cc(C(=O)NCc3cc(Cl)ccc3F)nn2)nn1` [Example 338, N-[(5-chloro-2-fluorophenyl)methyl]-1-(4-{4-[2-(pyridin-2-yl)acetamido]-1H-1,2,3-triazol-1-yl}butyl)-1H-1,2,3-triazole-4-carboxamide]: the IC50 in assay [1] is less than 100 nM. Also, the half-maximal effective concentration (EC50) in assay [2] (A549, 72 h) was in the range of 100 to 500 nM.
The corresponding values for `O=C(Cc1cccc(OC(F)(F)F)c1)Nc1cn(CC(F)CCn2cc(C(=O)NCc3cccc(OC(F)(F)F)c3)nn2)nn1` (stereo not shown) [Example 339, 1-[3-fluoro-4-(4-{2-[3-(trifluoromethoxy)phenyl]acetamido}-1H-1,2,3-triazol-1-yl)butyl]-N-{[3-(trifluoromethoxy)phenyl]methyl}-1H-1,2,3-triazole-4-carboxamide] are less than 100 nM and less than 100 nM.
For `O=C(Cc1cccc(OC(F)(F)F)c1)Nc1cn(CC(F)CCn2cc(C(=O)NCc3cc(OC(F)(F)F)ccc3F)nn2)nn1` (stereo not shown) [Example 340, 1-[3-fluoro-4-(4-{2-[3-(trifluoromethoxy)phenyl]acetamido}-1H-1,2,3-triazol-1-yl)butyl]-N-{[2-fluoro-5-(trifluoromethoxy)phenyl]methyl}-1H-1,2,3-triazole-4-carboxamide], in that order: less than 100 nM and less than 100 nM.
For `O=C(Cc1cccc(OC(F)(F)F)c1)Nc1cn(CC(F)CCn2cc(C(=O)NCc3ncccc3F)nn2)nn1` (stereo not shown) [Example 341, 1-[3-fluoro-4-(4-{2-[3-(trifluoromethoxy)phenyl]acetamido}-1H-1,2,3-triazol-1-yl)butyl]-N-[(3-fluoropyridin-2-yl)methyl]-1H-1,2,3-triazole-4-carboxamide], in that order: less than 100 nM and 100 to 500 nM.
Turning to `Cc1ccc(CC(=O)Nc2cn(CC(F)CCn3cc(C(=O)NCc4cccc(OC(F)(F)F)c4)nn3)nn2)cn1` (stereo not shown) [Example 342, 1-(3-fluoro-4-{4-[2-(6-methylpyridin-3-yl)acetamido]-1H-1,2,3-triazol-1-yl}butyl)-N-{[3-(trifluoromethoxy)phenyl]methyl}-1H-1,2,3-triazole-4-carboxamide], the IC50 in assay [1] was less than 100 nM. The concentration giving a half-maximal response (EC50) in assay [2] (A549, 72 h) was less than 100 nM.
Consider `Cc1ccc(CC(=O)Nc2cn(CC(F)CCn3cc(C(=O)NCc4cc(OC(F)(F)F)ccc4F)nn3)nn2)cn1` (stereo not shown) [Example 343, 1-(3-fluoro-4-{4-[2-(6-methylpyridin-3-yl)acetamido]-1H-1,2,3-triazol-1-yl}butyl)-N-{[2-fluoro-5-(trifluoromethoxy)phenyl]methyl}-1H-1,2,3-triazole-4-carboxamide], for which the IC50 in assay [1] was less than 100 nM. Further, in assay [2] (A549, 72 h), the EC50 is less than 100 nM.
As for `Cc1ccc(CC(=O)Nc2cn(CC(F)CCn3cc(C(=O)NCc4ccccn4)nn3)nn2)cn1` (stereo not shown) [Example 344, 1-(3-fluoro-4-{4-[2-(6-methylpyridin-3-yl)acetamido]-1H-1,2,3-triazol-1-yl}butyl)-N-(pyridin-2-ylmethyl)-1H-1,2,3-triazole-4-carboxamide], the IC50 in assay [1] is 100 to 500 nM. The same compound displayed a 50% effective concentration (EC50) in assay [2] (A549, 72 h) of more than 5000 nM.
For `Cc1ccc(CC(=O)Nc2cn(CC(F)CCn3cc(C(=O)NCc4ncccc4F)nn3)nn2)cn1` (stereo not shown) [Example 345, 1-(3-fluoro-4-{4-[2-(6-methylpyridin-3-yl)acetamido]-1H-1,2,3-triazol-1-yl}butyl)-N-[(3-fluoropyridin-2-yl)methyl]-1H-1,2,3-triazole-4-carboxamide], in that order: 100 to 500 nM and more than 5000 nM.
The corresponding values for `Cc1ccc(CNC(=O)c2cn(CCC(F)Cn3cc(NC(=O)Cc4ccc(C)nc4)nn3)nn2)cn1` (stereo not shown) [Example 346, 1-(3-fluoro-4-{4-[2-(6-methylpyridin-3-yl)acetamido]-1H-1,2,3-triazol-1-yl}butyl)-N-[(6-methylpyridin-3-yl)methyl]-1H-1,2,3-triazole-4-carboxamide] are less than 100 nM and 500 to 5000 nM.
Take `O=C(Cc1ccccn1)Nc1cn(CC(F)CCn2cc(C(=O)NCc3cccc(OC(F)(F)F)c3)nn2)nn1` (stereo not shown) [Example 347, 1-(3-fluoro-4-(4-(2-(pyridin-2-yl)acetamido)-1H-1,2,3-triazol-1-yl)butyl)-N-(3-(trifluoromethoxy)benzyl)-1H-1,2,3-triazole-4-carboxamide]: the IC50 in assay [1] was less than 100 nM. In assay [2] (A549, 72 h), this compound had an EC50 of less than 100 nM.
As to `O=C(CN1CC(F)C1)Nc1cn(CCCCn2cc(C(=O)NCc3cc(OC(F)(F)F)ccc3F)nn2)nn1` [Example 350, N-{[2-fluoro-5-(trifluoromethoxy)phenyl]methyl}-1-(4-{4-[2-(3-fluoroazetidin-1-yl)acetamido]-1H-1,2,3-triazol-1-yl}butyl)-1H-1,2,3-triazole-4-carboxamide], the IC50 in assay [1] was 100 to 500 nM. The EC50 in assay [2] (A549, 72 h) is 100 to 500 nM.
For the compound `O=C(CN1CC(F)(F)C1)Nc1cn(CCCCn2cc(C(=O)NCc3cc(Cl)ccc3F)nn2)nn1` [Example 352, N-[(5-chloro-2-fluorophenyl)methyl]-1-(4-{4-[2-(3,3-difluoroazetidin-1-yl)acetamido]-1H-1,2,3-triazol-1-yl}butyl)-1H-1,2,3-triazole-4-carboxamide], the half-maximal inhibitory concentration (IC50) in assay [1] is 100 to 500 nM. The concentration for a half-maximal effect (EC50) in assay [2] (A549, 72 h) is 500 to 5000 nM.
As for `O=C(CN1CC(F)(F)C1)Nc1cn(CCCCn2cc(C(=O)NCc3cc(OC(F)(F)F)ccc3F)nn2)nn1` [Example 353, 1-(4-{4-[2-(3,3-difluoroazetidin-1-yl)acetamido]-1H-1,2,3-triazol-1-yl}butyl)-N-{[2-fluoro-5-(trifluoromethoxy)phenyl]methyl}-1H-1,2,3-triazole-4-carboxamide], the IC50 in assay [1] is less than 100 nM. Also, the EC50 in assay [2] (A549, 72 h) lay in the range of 100 to 500 nM.
